The NIST ThermoML archive (doi:10.1021/je060339m)

Details: Liquid

CCCCCOC(C)=O [pentyl ethanoate]
mass density [kg/m3]
Details	298.15 K	303.15 K	308.15 K	313.15 K	318.15 K	323.15 K	328.15 K	333.15 K	338.15 K	343.15 K
100 kPa	871.4	866.5	861.6	856.7	851.9	847.1	842.3	837.8	832.9	828.3
1000 kPa	871.9	867.1	862.2	857.4	852.6	847.7	843.2	838.7	834	829.3
2000 kPa	872.7	867.9	863.1	858.3	853.5	848.7	844.4	839.8	835.1	830.4
2700 kPa	873.3	868.5	863.7	858.9	854.2	849.3	845.2	840.5	835.8	831.2
3000 kPa	873.5	868.7	863.9	859.2	854.4	849.6	845.5	840.8	836.1	831.5
5000 kPa	875.3	870.5	865.8	861	856.4	851.7	847.1	842.7	838.1	833.5
10000 kPa	879.1	874.4	869.8	865.2	860.7	856.1	851.6	847.4	842.9	838.5
15000 kPa	882.7	878.1	873.6	869	864.7	860.2	855.9	851.8	847.5	843.2
20000 kPa	886.2	881.6	877.3	872.8	868.5	864.2	860	856	851.9	847.7
25000 kPa	889.6	885.1	880.8	876.4	872.3	868.1	864.1	860.1	856.2	–
30000 kPa	893.6	889.4	885.2	880.9	876.9	872.8	869	865.1	861.3	–
35000 kPa	897.9	893.8	889.7	885.5	881.7	877.6	874	870.2	866.5	–
